Experimental data: patent US20240208961A1, “EIF4E INHIBITORS AND USES THEREOF” (PIC Therapeutics, Inc., priority 2022, published 2024)

Legend:
[1] = tested on: LoVo; assay: Cell viability assay, adherent cell line, 5 day Alamar Blue (Example 8): LoVo; assay type: cell-based; details: Homo sapiens, 120 h, Colorectal Cancer Cell Viability
Procedure: (§1) Cell viability assays were performed on certain compounds of the disclosure, according to the following procedure.
(§2) Cell line specific media conditions used:
The procedure for adherent cell line compound screening was as follows:
• Cells were seeded in 96-well cell culture treated tissue culture plates: ZR-75-1, NIHOVCAR3, T47D, and LOVO cells 4000 cells/well; and HPAFII 3000 cell/well
Day 3: Compound Dilution and Dosing
(§3) • 5-fold serial dilution (8 point) of each compound in DMSO 0-25 mM in compound storage plates was prepared (stored at −80° C. if not to be used immediately). • Cells were rinsed with 1% FBS Media (appropriate to cell line as described above) and replaced with 87.5 μL media prior to dosing. HPAFII was screened in normal 10% FBS Media. • DMSO compound dilution series was diluted in 1% FBS media (appropriate to cell line as described above)—2 μL in 248 μL to give an 8× final concentration. • Cells were dosed 12.5 μL/well in triplicate to give final dose curved on cells 0-25 μM. • Media blank 100 μL/well×8 was set up. • All plates were incubated at 37° C.
Day 8: 5 Day Viability Assay
(§4) • Alamar Blue viability reagent was added (10 μL per well) and incubated for 3 hours at 37° C. prior to fluorescence detection (Ex560 nm/Em590 nm) on a Varioskan Lux multimode plate reader.
(§5) Results from cell viability assays are summarized in Table 23, wherein A represents IC50≤1 μM; B represents 1 μM<IC50≤8 μM; and C represents IC50>8 μM. Blank cells indicate that the compound was not tested in a particular assay.

[2] = tested on: MM.1S; assay: Cell viability assay, suspension cell line, 5 day Alamar Blue (Example 8): MM.1S; assay type: cell-based; details: Homo sapiens, MM1.S, 120 h, Multiple Myeloma (Steroid Sensitive) Cancer Cell
Procedure: as §1, §2
The procedure for suspension cell line compound screening was as follows:
Day 1: Cell Seeding and Compound Dosing
as §3, with “• Cells were seeded 2×10^5 in 96-well cell culture treated tissue culture plates: 87.5 μL/well; MM.1 S, MM,1R, NCIH510A. • 5-fold” for “• 5-fold”, “to dosing. • DMSO” for “to dosing. HPAFII was screened in normal 10% FBS Media. • DMSO”
Day 6: 5 Day Viability Assay
as §4, §5

With CC(C)Cc1sc(Nc2ncc(-c3cccs3)cc2C(=O)O)nc1C(C)(C)C [Compound I-11] the IC50 [1] was ≤ 1000 nM and the IC50 [2] was ≤ 1000 nM.
